Assay results published in EP0698347B1, “Food composition containing reuterin” (BIOGAIA BIOLOGICS AB, priority 1987, dated 1988).

Assays:
[1] = Antimicrobial activity of pure commercial preparations; assay type: cell-based; settings: concentrations as high as 0.125M
Excerpt: Reuterin Is a Product of Glycerol Fermentation. Reuterin is a new product associated with the same type of heterolactic fermentation of glycerol that occurs in other Lactobacillus species. Reuterin can be isolated and identified as a product of glycerol fermentation by L. reuteri using HPLC.

E. coli [2] = assay: Co-culture of E. coli with and without L. reuteri 1063 on various substrates (Table 1); assay type: cell-based; set-up: % Inhibition: concentration or dose not given beside the values; settings: for E. coli (CFU/ml) after 6 hours: substrate 20 mM (C6, C5) or 40 mM (C3), inoculum 5 x 10^6 CFU per ml E. coli
Description: (§1) Conditions under which reuterin is produced have been determined. Reuterin is not produced under aerobic conditions (atmospheric oxygen concentration) but under reduced oxygen tension. It is produced when L. reuteri is cultured anaerobically (or semi-anaerobically in still culture) in the MIC assay medium described above containing 20-500 mM glycerol or glyceraldehyde in place of glucose as the major carbon and energy source. […] Twenty other substances, including hexoses, hexitols, pentoses, pentitols, disaccharides and a variety of phosphorylated and non-phosphorylated C3-substances, were tested for their ability to support reuterin production. […] The medium, containing a substrate at 20 mM (C6 and C5 substrates) or 40 mM (C3 substrates) concentrations, was inoculated with 5 x 10^6 colony-forming units (CFU) per ml E. coli with and without L. reuteri. Only glycerol and glyceraldehyde yielded reuterin. Also, réuterin production from glycerol is inhibited when glucose or another growth substrate is included in the production medium. The results shown in Table 2 indicate the percent inhibition in viable count of a 6.7 x 10^7 CFU per ml E. coli inoculum by supernatant fractions of L. reuteri grown on various indicated substrates at 40 mM concentrations.

spoilage pseudomonads = assay: Fish fillet storage: spoilage bacteria count (Table 8); settings: fish fillets dipped in treatment solution, 8°C for 4 days
Description: Lactobacillus reuteri plus glycerol constitutes a novel effective food preservation process. Evidence for this was obtained using storage of fish as a model system. This study was conducted as follows: Fish fillets (Herring, Clupea harengas) were dipped in the following treatment solution: • control: no treatment • glycerol: 250 mM glycerol solution • strain 1068: 250 mM glycerol solution containing 4x10^9 CFU per ml L. reuteri 1068 (a non-reuterin producing strain) • strain 1063: 250 mM glycerol solution containing 4x10^9 CFU per ml L. reuteri 1063 The fillets (2 parallel samples each) were kept in large Petri dishes at 8°C for 4 days in a refrigerator. The ammonia content and CFU of relevant bacteria (i.e., spoilage pseudomonads and added lactobacilli) were then analyzed to evaluate the shelf-life of the food product. […] L. reuteri 1068 did so to some extent but not enough to prevent spoilage which is generally indicated by a log 8.4 pseudomonad count. • (iii) the retarding effect of L. reuteri and glycerol on spoilage bacteria has a strong reducing effect on ammonia liberation. • (iv) a food preservative effect of L. reuteri plus glycerol is indicated for all kinds of food spoilage.

E. coli [3] = assay: Inhibition of E. coli by supernatant fractions of L. reuteri grown on various substrates (Table 2); assay type: cell-based
Description: as §1

L. reuteri = assay: Sensitivity of L. reuteri itself to reuterin; assay type: cell-based
Description: (§2) Antimicrobial Activity. Reuterin is a broad-spectrum antimicrobial agent. Reuterin functions as a bacteriocide. […] The indicated concentrations (CFU per ml) of E. coli (solid lines) and L. reuteri 1063 (dashed lines) were inoculated (zero time) into the glycerol casein hydrolysate medium described above (o), the same medium minus citrate (•) and the same medium minus glycerol (X). The co-cultures were incubated semi-anaerobically (still cultures) at 37 degrees C with samples removed at the indicated intervals to determine the numbers (CFU per ml) of E. coli and L. reuteri present. […] All Gram-negative bacterial genera tested thus far (Escherichia, Shigella, Salmonella, Proteus and Pseudomonas) and all Gram positive genera tested (Staphylococcus, Streptococcus, Clostridium, Bacillus, Leuconostoc and Lactobacillus) are sensitive to reuterin. Somewhat higher concentrations of reuterin are required, however, to kill representatives of the latter three genera. A lower eucaryote, the yeast Saccharomyces cerevisiae, is also killed by reuterin. Also shown in this table is the ability of various species tested to stimulate reuterin production by the heterologous procedure.

phage 8014-B2 = assay: Reuterin added to phage-infected bacterial cultures: virus PFUs versus host CFUs (Figure 13); assay type: cell-based, Lactobacillus plantarum; settings: reuterin amounts at or greater than 25 units; four hours
Description: (§3) Antiviral Activity. Reuterin is also effective in preventing virus replication. […] It appears from preliminary results with ^14C-labeled glycerol that 4 ug of reuterin in 0.5 ml solution is about the equivalent of 1 unit of reuterin. After four hours, the number of colony-forming units (CFUs) of the host cell and the number of plaque-forming units (PFUs) of the viruses were assayed using standard microbiological techniques. With no reuterin added, the number of microbial cells had increased about 100-fold in the four-hour period. With E. coli, addition of 10 units of reuterin caused an approximate 100-fold decrease in the number of cells and more than a 1000-fold decrease in the number of PFUs of the lambda phage as compared to the reuterin-free control culture after incubation for four hours.

ground beef microflora = assay: Food preservation: ground beef microflora (Figure 14); settings: 50 and 100 units per g; stored at 4 degrees C; through the 6-day test period
Description: Reuterin is an effective food preservative. Ground beef purchased from a local supermarket was divided into 4 portions. One portion was untreated, the others were treated with 10, 50 and 100 units of reuterin per gram of the meat. All samples were stored at 4 degrees C with samples taken at indicated days for bacteriological analysis.
Beef samples were removed and diluted 1:10 (1 g beef: 9 ml sterile H2O). Subsequent decimal dilutions were made as needed and samples were plated onto Difco Nutrient Agar. These samples were incubated at 27°C for 24 hours and counted as colony forming units per gram ground beef (CFU/g). […] With the higher levels of reuterin (50 and 100 units per g) the indigenous population of bacteria was reduced and remained greater than 4 log units lower than the control sample through the 6-day test period.

Tryoanosoma cruzi = assay: In vitro growth of the protozoan parasite; assay type: cell-based; settings: final concentration of approximately 20 MIC units ml^-1
[4] = Characterizations of reuterin in crude preparations; assay type: physicochemical
E. coli K12 [5] = assay: Minimum Inhibitory Concentration (MIC) procedure; assay type: cell-based; settings: chemically synthesized as described by Hall, compared with biologically synthesized reuterin
Description: Reuterin. When Lactobacillus reuteri cells capable of producing reuterin are placed under certain favorable conditions, reuterin is produced. A number of assays have been developed to detect and quantitate reuterin. A standard Minimum Inhibitory Concentration (MIC) procedure was adopted to detect reuterin and to elucidate factors affecting its production. E. coli K12 is used as the susceptible test microorganism and the assay is carried-out as follows. Overnight cultures of E. coli are harvested, washed twice with sterile 0.05 sodium phosphate buffer (pH 7.5), suspended in this buffer and adjusted to 60 percent transmission (A 420 nm) using a Spectronic 70 instrument. This suspension is diluted 1:100 and 0.1 ml aliquots are used to inoculate 1.0 ml of the MIC assay medium which contains (g/L): vitamin-free casein hydrolysate, 3; ammonium citrate, 1.9; citric acid, 0.63; KH2PO4, 12.6; MgSO4 (hepta-hydrate), 0.2; pH adjusted to 7.0 and 20 mM glucose added after sterilization. […] Relative reuterin concentrations (units reuterin) are then calculated as the reciprocal of the sample dilution preceding the dilution allowing visible growth of the indicator cells. Another assay relating MIC values to reuterin peak heights as determined by HPLC analyses (described below) has also been developed.

E. coli [6] = assay: Bacteriocidal activity in E. coli / L. reuteri 1063 co-culture in glycerol medium (Figure 5); assay type: cell-based; settings: glycerol present; co-culture with L. reuteri 1063, still culture, 37 degrees C; few hours after first 3-4 hours
Description: as §2

Escherichia coli = assay: Reuterin added to phage-infected bacterial cultures: host CFUs (Figure 13); assay type: cell-based; settings: 10 units of reuterin; four hours; compared to the reuterin-free control culture
Description: as §3

Lambda phage = assay: Reuterin added to phage-infected bacterial cultures: virus PFUs (Figure 13); assay type: cell-based; settings: 10 units of reuterin; four hours; compared to the reuterin-free control culture
Description: as §3

Pediococcus cerevisiae = assay: Sensitivity to reuterin (Table 6); assay type: cell-based
Description: as §2

Clostridium sporogenes = assay: Sensitivity to reuterin (Table 6); assay type: cell-based
Description: as §2

Saccharomyces cerevisiae = assay: Sensitivity to reuterin (Table 6); assay type: cell-based
Description: as §2

Bacillus megaterium = assay: Sensitivity to reuterin (Table 6); assay type: cell-based
Description: as §2

[7] = tested on: Leuconostoc mesenteroides; assay: Sensitivity to reuterin (Table 6); assay type: cell-based
Description: as §2

E. coli K12 [8] = assay: Food preservation: E. coli-inoculated ground beef (Figure 15); settings: 75 units (U) of reuterin per gram of beef; 4°C; 9-day incubation period
Description: Ground beef purchased from a local supermarket was thoroughly inoculated and mixed with approximately 10^5CFU/ml of E. coli K12 cells. After mixing, the material was divided into 2 portions. One portion was an untreated control (no reuterin), the other portion received 75 units (U) of reuterin per gram of beef. Samples were stored at 4°C with portions removed at indicated times for bacteriological analysis. In this experiment the determination of viable cells (CFU/g beef) was conducted as described for Figure 14 except that Difco McConkey's Agar (relatively specific for coliform-like bacteria) was used.

OCC(O)CO [Glycerol]
antimicrobial activity [1]: essentially devoid of antimicrobial activity | E. coli (CFU/ml) after 6 hours (E. coli [2]; Addition of L. reuteri 1063: +): 5.5x10^4 CFU/ml | E. coli (CFU/ml) after 6 hours (E. coli [2]; Addition of L. reuteri 1063: -): 1.2x10^7 CFU/ml | % Inhibition (E. coli [2]; E. coli with versus without L. reuteri 1063 on the substrate, 6 hours): 99% | Log CFU bacteria per g Pseudomonads (kings agar) (spoilage pseudomonads): 9.4 Log CFU bacteria per g | % Inhibition (E. coli [3]; percent inhibition in viable count of 6.7 x 10^7 CFU per ml E. coli inoculum by supernatant fraction, substrate 40 mM): 99.9% | Growth of E. coli presence of centrifuged culture medium CFU/ml after 6 hours (E. coli [3]; supernatant fraction of L. reuteri grown on the substrate at 40 mM, inoculum 6.7 x 10^7 CFU per ml E. coli): 4.5x10^5 CFU/ml

OCCC1OCCC(O)O1 (stereo not drawn) [reuterin, 4-hydroxy-2-2'-hydroxyethyl-1:3-dioxan]
concentrations at which L. reuteri itself is sensitive to reuterin (L. reuteri): ≥ 32 MIC units | Lactobacillus CFU and PFU decreases due to reuterin (phage 8014-B2): even greater declines in the PFUs than in the CFUs | indigenous population of bacteria lower than the control sample (ground beef microflora): greater than 4 log units | in vitro growth of the protozoan parasite (Tryoanosoma cruzi): inhibits in vitro growth | stability to heat ([4]; 100 degrees C for 10 minutes, particularly at pH values of 9.0 or higher): labile to heat | resistance to nucleases and proteases ([4]; crude preparations): resistant to nucleases and proteases | solubility in water ([4]; crude preparations): highly soluble in water | MIC value (E. coli K12 [5]): idential MIC value as the biologically synthesized reuterin | log decrease in viable E. coli cells (E. coli [6]): 7-8 log | decrease in the number of cells (Escherichia coli): about 100 fold | decrease in the number of PFUs of the lambda phage (Lambda phage): > 1000 fold | Sensitivity to reuterin (Pediococcus cerevisiae): S | Sensitivity to reuterin (Clostridium sporogenes): S | Sensitivity to reuterin (Saccharomyces cerevisiae): S | Sensitivity to reuterin (Bacillus megaterium): S | Sensitivity to reuterin [7]: S | viable cells (CFU/g beef) on McConkey's Agar (E. coli K12 [8]): reduced the initial population of bacteria and kept these numbers low
